Target: cruzain (Trypanosoma cruzi, UniProt P25779)
Assay: biochemical
Settings: 0’ (no pre-incubation); sheet Screening results
Description: (§1) Allison Doak and Prof. Brian Shoichet (University of California San Francisco, San Francisco, CA, USA) and Prof. Conor Caffrey (University of California San Diego, San Diego, CA, USA) generously provided recombinant cruzain and TbrCatL, respectively. In vitro activity of proteases cruzain and TbrCatL was assayed as previously described. Briefly, enzyme activity was measured by monitoring the cleavage of the fluorogenic substrate […] (Z-FR-AMC) at 25 °C. Fluorescence was monitored at 340/440 nm (excitation/emission) over 5–7 min in a Synergy2 Biotek plate reader. […] DMSO and 1 μM E-64 were employed as negative and positive controls, respectively, in all assays. Two conditions were employed for both enzymes: 10′ pre-incubation of the enzyme in the presence of the compound (10′ inc) and no pre-incubation (0′). Reported values correspond to the mean and standard error of the mean (SEM) and all analyses were performed using GraphPad Prism 6.0.
(§2) For the initial screening, compounds were assayed at 5 μM. […] IC50 curves were obtained from a non-linear fit of at least seven distinct compound concentrations, in triplicate. Reported IC50 values are the mean and SEM of two independent measurements.
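Further: at 5 µM compound concentration.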

cruzain, sequence (P25779 123-337 limits assumed): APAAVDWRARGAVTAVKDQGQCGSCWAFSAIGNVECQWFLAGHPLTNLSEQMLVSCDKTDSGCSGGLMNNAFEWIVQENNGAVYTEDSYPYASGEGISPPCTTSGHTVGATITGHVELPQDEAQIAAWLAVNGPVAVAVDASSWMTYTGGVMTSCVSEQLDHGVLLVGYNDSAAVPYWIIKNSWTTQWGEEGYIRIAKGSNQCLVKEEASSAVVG

In order of rising “Cruzain Inhibition 0’” value:
1. COc1ccc(Cl)cc1NC(=O)CN(C)C(=O)c1cnn(-c2ccccc2)n1 [MMV020710]  -11%
2. CC(C)C(NC(=O)Cc1cccc2ccccc12)C(=O)Nc1cccc(C#N)c1 (stereo not shown) [MMV020591]  -1.7%
3. CC(C)C(C(=O)Nc1ccc(S(=O)(=O)N(C)C)cc1)c1ccc(Cl)cc1 (stereo not shown) [MMV020391]  -1.5%
4. Cc1ccc(Oc2ccc(NC(=O)CNc3ccccc3N3CCCC3=O)cc2)cc1 [MMV020512]  0.2%
5. Cc1noc(C)c1C(=O)N1CCCC(c2[nH]c3c(C)cccc3c2-c2ccncc2)C1 (stereo not shown) [MMV020623]  0.3%
6. CC(C)(C)c1cc(C(=O)Nc2cccnc2)cc(C(=O)Nc2cccnc2)c1 [MMV020982]  1.3%
7. CO/C=C(\C(=O)OC)c1ccccc1Oc1cc(Oc2ccccc2C#N)ncn1 [MMV021057]  1.6%
8. O=C(NC1CC1)c1ccc(N2CCC(Cc3ccccc3)CC2)nc1 [MMV024397]  3%
9. COc1ccccc1CNC(=O)c1cc(C2CC2)nc2c1cnn2C(C)C [MMV020517]  4%
10. Cc1cc2ccccc2n1CC(=O)N1CC(C(=O)N2CCCCC2)Oc2ccccc21 (stereo not shown) [MMV020520]  4.7%
11. O=C(NC1CC1)c1ccc(N2CCOc3ccc(Cl)cc32)s1 [MMV020537]  18%

Same assay, conditions: 0’ (pre-incubation time); Pathogen Box screening results

In the case of `c1ccc(-c2nc(NC3CCCCC3)cc(C3CC3)n2)nc1` [MMV021013], the “Cruzain Inhibition 0’” value is reported as 9%.

Same assay, conditions: 0’ (pre-incubation time); sheet "Screening results"

In order of rising “Cruzain 0’ Inhibition” value:
1. CN1CCC(NCc2cccc(-c3ccc(S(=O)(=O)NCc4ccccc4)cc3)c2)CC1 [MMV022029]  -2.3%
2. COc1ccc(-c2cncc3ccc(C(=O)NCCCn4ccnc4)nc23)cc1 [MMV020670]  -2.2%
3. Cc1cc(NCCc2ccccc2)nc(NC(=N)Nc2ccc(Cl)cc2)n1 [MMV021660]  11%
4. Cc1cc(NCC(C)C)c2[nH]nc(-c3ccccc3)c2n1 [MMV021375]  18%

Same assay, conditions: 10’ (pre-incubation time); Pathogen Box screening results

For `c1ccc(-c2nc(NC3CCCCC3)cc(C3CC3)n2)nc1` [MMV021013], the “Cruzain Inhibition 10’” value was 16%.

Same assay, conditions: 10’ (pre-incubation time); sheet "Screening results"

In order of falling “Cruzain 10’ Inhibition” value:
1. CN1CCC(NCc2cccc(-c3ccc(S(=O)(=O)NCc4ccccc4)cc3)c2)CC1 [MMV022029]  29%
2. Cc1cc(NCC(C)C)c2[nH]nc(-c3ccccc3)c2n1 [MMV021375]  23%
3. Cc1cc(NCCc2ccccc2)nc(NC(=N)Nc2ccc(Cl)cc2)n1 [MMV021660]  14%
4. COc1ccc(-c2cncc3ccc(C(=O)NCCCn4ccnc4)nc23)cc1 [MMV020670]  -17%

Same assay, conditions: 10’ (pre-incubation); sheet Screening results

In order of falling “Cruzain Inhibition 10’” value:
1. O=C(NC1CC1)c1ccc(N2CCOc3ccc(Cl)cc32)s1 [MMV020537]  9%
2. Cc1ccc(Oc2ccc(NC(=O)CNc3ccccc3N3CCCC3=O)cc2)cc1 [MMV020512]  8%
3. COc1ccccc1CNC(=O)c1cc(C2CC2)nc2c1cnn2C(C)C [MMV020517]  7%
4. CO/C=C(\C(=O)OC)c1ccccc1Oc1cc(Oc2ccccc2C#N)ncn1 [MMV021057]  6.5%
5. O=C(NC1CC1)c1ccc(N2CCC(Cc3ccccc3)CC2)nc1 [MMV024397]  6%
6. Cc1noc(C)c1C(=O)N1CCCC(c2[nH]c3c(C)cccc3c2-c2ccncc2)C1 (stereo not shown) [MMV020623]  5%
7. Cc1cc2ccccc2n1CC(=O)N1CC(C(=O)N2CCCCC2)Oc2ccccc21 (stereo not shown) [MMV020520]  3.4%
8. CC(C)C(C(=O)Nc1ccc(S(=O)(=O)N(C)C)cc1)c1ccc(Cl)cc1 (stereo not shown) [MMV020391]  2%
9. CC(C)C(NC(=O)Cc1cccc2ccccc12)C(=O)Nc1cccc(C#N)c1 (stereo not shown) [MMV020591]  -0.4%
10. CC(C)(C)c1cc(C(=O)Nc2cccnc2)cc(C(=O)Nc2cccnc2)c1 [MMV020982]  -0.5%
11. COc1ccc(Cl)cc1NC(=O)CN(C)C(=O)c1cnn(-c2ccccc2)n1 [MMV020710]  -36%

Target: T1, TbrCatL (Trypanosoma brucei rhodesiense, UniProt Q95PM0)
T1 construct: Conor Caffrey (University of California San Diego)
Assay: TbrCatL enzymatic inhibition assay (cleavage of fluorogenic substrate Z-FR-AMC)
Format: biochemical
Settings: 0’ (no pre-incubation); sheet Screening results
Description: as §1, §2

T1 sequence (Q95PM0 entry or part of it): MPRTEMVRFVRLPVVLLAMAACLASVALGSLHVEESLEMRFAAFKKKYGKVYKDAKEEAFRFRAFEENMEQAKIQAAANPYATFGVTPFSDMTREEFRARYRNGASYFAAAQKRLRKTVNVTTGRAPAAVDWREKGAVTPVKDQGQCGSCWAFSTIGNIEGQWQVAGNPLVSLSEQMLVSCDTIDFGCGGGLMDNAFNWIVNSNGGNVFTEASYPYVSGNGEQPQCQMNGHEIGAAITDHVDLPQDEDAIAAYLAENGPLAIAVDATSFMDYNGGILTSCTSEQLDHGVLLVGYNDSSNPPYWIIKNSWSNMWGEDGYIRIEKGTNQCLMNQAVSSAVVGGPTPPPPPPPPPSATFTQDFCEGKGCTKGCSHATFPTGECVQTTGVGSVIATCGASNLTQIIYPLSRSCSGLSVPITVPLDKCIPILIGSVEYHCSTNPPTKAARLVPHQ

In order of rising “TbrCatL Inhibition 0’” value:
1. COc1ccc(Cl)cc1NC(=O)CN(C)C(=O)c1cnn(-c2ccccc2)n1 [MMV020710]  -10%
2. CC(C)C(NC(=O)Cc1cccc2ccccc12)C(=O)Nc1cccc(C#N)c1 (stereo not shown) [MMV020591]  -8%
3. CC(C)(C)c1cc(C(=O)Nc2cccnc2)cc(C(=O)Nc2cccnc2)c1 [MMV020982]  -6%
4. Cc1noc(C)c1C(=O)N1CCCC(c2[nH]c3c(C)cccc3c2-c2ccncc2)C1 (stereo not shown) [MMV020623]  -5.6%
5. CC(C)C(C(=O)Nc1ccc(S(=O)(=O)N(C)C)cc1)c1ccc(Cl)cc1 (stereo not shown) [MMV020391]  -3.4%
6. Cc1ccc(Oc2ccc(NC(=O)CNc3ccccc3N3CCCC3=O)cc2)cc1 [MMV020512]  -3.2%
7. Cc1cc2ccccc2n1CC(=O)N1CC(C(=O)N2CCCCC2)Oc2ccccc21 (stereo not shown) [MMV020520]  1.6%
8. CO/C=C(\C(=O)OC)c1ccccc1Oc1cc(Oc2ccccc2C#N)ncn1 [MMV021057]  1.9%
9. O=C(NC1CC1)c1ccc(N2CCC(Cc3ccccc3)CC2)nc1 [MMV024397]  2.6%
10. COc1ccccc1CNC(=O)c1cc(C2CC2)nc2c1cnn2C(C)C [MMV020517]  2.7%
11. O=C(NC1CC1)c1ccc(N2CCOc3ccc(Cl)cc32)s1 [MMV020537]  8%

Same assay, conditions: 0’ (pre-incubation time); Pathogen Box screening results

`c1ccc(-c2nc(NC3CCCCC3)cc(C3CC3)n2)nc1` [MMV021013] was tested, and the “TbrCatL Inhibition 0’” value was -1.4%.

Same assay, conditions: 0’ (pre-incubation time); sheet "Screening results"

In order of rising “TbrCatL 0’ Inhibition” value:
1. CN1CCC(NCc2cccc(-c3ccc(S(=O)(=O)NCc4ccccc4)cc3)c2)CC1 [MMV022029]  -8%
2. Cc1cc(NCCc2ccccc2)nc(NC(=N)Nc2ccc(Cl)cc2)n1 [MMV021660]  -3.6%
3. COc1ccc(-c2cncc3ccc(C(=O)NCCCn4ccnc4)nc23)cc1 [MMV020670]  -3%
4. Cc1cc(NCC(C)C)c2[nH]nc(-c3ccccc3)c2n1 [MMV021375]  17%

Same assay, conditions: 10’ (pre-incubation time); Pathogen Box screening results

In the case of `c1ccc(-c2nc(NC3CCCCC3)cc(C3CC3)n2)nc1` [MMV021013], the “TbrCatL Inhibition 10’” value is reported as 19%.

Same assay, conditions: 10’ (pre-incubation time); sheet "Screening results"

In order of rising “TbrCatL 10’ Inhibition” value:
1. COc1ccc(-c2cncc3ccc(C(=O)NCCCn4ccnc4)nc23)cc1 [MMV020670]  -13%
2. Cc1cc(NCCc2ccccc2)nc(NC(=N)Nc2ccc(Cl)cc2)n1 [MMV021660]  7%
3. CN1CCC(NCc2cccc(-c3ccc(S(=O)(=O)NCc4ccccc4)cc3)c2)CC1 [MMV022029]  14%
4. Cc1cc(NCC(C)C)c2[nH]nc(-c3ccccc3)c2n1 [MMV021375]  20%

Same assay, conditions: 10’ (pre-incubation); sheet Screening results

In order of rising “TbrCatL Inhibition 10’” value:
1. COc1ccc(Cl)cc1NC(=O)CN(C)C(=O)c1cnn(-c2ccccc2)n1 [MMV020710]  -99%
2. CC(C)(C)c1cc(C(=O)Nc2cccnc2)cc(C(=O)Nc2cccnc2)c1 [MMV020982]  -7%
3. CC(C)C(NC(=O)Cc1cccc2ccccc12)C(=O)Nc1cccc(C#N)c1 (stereo not shown) [MMV020591]  -3.7%
4. CC(C)C(C(=O)Nc1ccc(S(=O)(=O)N(C)C)cc1)c1ccc(Cl)cc1 (stereo not shown) [MMV020391]  -2.5%
5. Cc1ccc(Oc2ccc(NC(=O)CNc3ccccc3N3CCCC3=O)cc2)cc1 [MMV020512]  -0.2%
6. O=C(NC1CC1)c1ccc(N2CCC(Cc3ccccc3)CC2)nc1 [MMV024397]  2.6%
7. Cc1noc(C)c1C(=O)N1CCCC(c2[nH]c3c(C)cccc3c2-c2ccncc2)C1 (stereo not shown) [MMV020623]  4%
8. O=C(NC1CC1)c1ccc(N2CCOc3ccc(Cl)cc32)s1 [MMV020537]  6%
9. COc1ccccc1CNC(=O)c1cc(C2CC2)nc2c1cnn2C(C)C [MMV020517]  9%
10. CO/C=C(\C(=O)OC)c1ccccc1Oc1cc(Oc2ccccc2C#N)ncn1 [MMV021057]  9%
11. Cc1cc2ccccc2n1CC(=O)N1CC(C(=O)N2CCCCC2)Oc2ccccc21 (stereo not shown) [MMV020520]  10%

— publication PMC9967275, “Screening the Pathogen Box to Discover and Characterize New Cruzain and TbrCatL Inhibitors” (Pathogens, 2023)
